Results from US5089623A, “Certain imidate insecticides” (Imperial Chemical Industries Plc, priority 1990, dated 1992).

Legend:
Type in all cases: in vivo
[1] = system: Housefly [Musca domestica]; assay: Housefly insecticidal test (HF); settings: per 25 female houseflies, 48 hours
[2] = system: Tobacco Budworm [Heliothis virescens (Fabricius)]; assay: Tobacco budworm contact test (TBW-C); settings: second-instar larvae, 5 days, percent in solution
In short: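 Cotton cotyledons dipped 2–3 s in compound in 50:50 acetone–water, dried, then infested with 5 second-instar larvae and held 5 days at high humidity before scoring mortality.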

[3] = system: Tobacco Budworm [Heliothis virescens (Fabricius)] eggs; assay: Tobacco budworm egg test (TBW-E); settings: percent in solution
[4] = system: Beet Armyworm (Spodoptera exigua); assay: Beet armyworm test (BAW); settings: second-instar larvae, five days, percent in solution
In short: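 Sugar beet leaves were dipped 2-3 s in compound diluted in 50-50 acetone-water, dried, then infested with five second-instar larvae in humid dishes. Mortality was scored after five days at concentrations from 0.1% downward. LC50 was taken from dosage-mortality curves as percent compound in solution.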

[5] = system: Cabbage Looper [Trichoplusia ni (Hubner)]; assay: Cabbage looper test (CL); settings: second-instar larvae, 3-5 days, percent in solution
[6] = system: Aster Leafhopper [Macrosteles fascifrens (Stal)]; assay: Aster leafhopper test (LH); settings: adults/nymphs, 48 hours, percent in solution
[7] = system: Maize weevil [Sitophilus Zeamais (Motschulsky)]; assay: Maize weevil test (MW); settings: adult weevils, treated corn seeds, 48 hours, percent in solution
In short: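 Adult weevils (10) were placed with four corn seeds that had been dipped 2-3 s in compound dissolved in 50:50 acetone:water, then dried, and held at about 25° C. Mortality was scored at 48 h. LC50 was taken from dosage-mortality curves and expressed as percent compound in solution, from a 0.01% top concentration.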

[8] = system: Rice water weevil [Lissorhoptrus oryzophilus (Kuschel)]; assay: Rice water weevil test (RWW); settings: per weevil, topical, female adults, 48 hours
[9] = system: Black Bean Aphid [Aphis fabae (Scop.)]; assay: Black bean aphid test (BBA); settings: percent of test compound in sprayed solution, 48 hours
Protocol: The compounds in Tables 1 and 2 above were tested for insecticidal activity using the following testing procedures. LC50 values, based on the results of these tests and calculated according to dosage-mortality curves, are expressed in Table 3.
Black Bean Aphid [Aphis fabae (Scop.)]
Nasturtium plants (Tropaeolum sp.) approximately 5 cm tall, were transplanted into sandy loam soil in small cups and infested with 25-50 black bean aphids of mixed ages. Twenty-four hours later they were sprayed to the point of runoff with 50-50 acetone-water solutions of the test compounds. Treated plants were held in the greenhouse and mortality was recorded after 48 hours. Test concentrations ranged from 0.05% downward. The LC-50 value is expressed below in Table 3 under the heading "BBA" in terms of percent of the test compound in the sprayed solution.

| Structure (SMILES) | LC50 HF [1] | LC50 TBW C [2] | LC50 TBW E [3] | LC50 BAW [4] | LC50 CL [5] | LC50 LH [6] | LC50 MW [7] | LC50 RWW [8] | LC50 BBA [9] |
| --- | --- | --- | --- | --- | --- | --- | --- | --- | --- |
| CC(C)C(=Nc1ccc2c(c1)OCO2)OCc1cccc(Oc2ccccc2)c1 [Compound 180] | 2 µg | 0.003% | 0.03% | 0.005% | 0.0004% | 0.0015% | 0.008% | > 2.5 µg |  |
| CC(C)C(=Nc1ccc(F)c(F)c1)OCc1ccc(F)c(Oc2ccc(F)cc2)c1 [Compound 278] | 3 µg | 0.00026% | 0.008% | 0.0012% | 0.00002% | 0.0003% | 0.0063% | 0.085 µg |  |
| CC(C)C(=Nc1ccc(Cl)cc1)OCc1cccc(Oc2ccc(Cl)cc2)c1 [Compound 269] | 25 µg | 0.001% | 0.04% | 0.0024% | 0.0003% | 0.003% | > 0.01% | > 2.5 µg |  |
| CC(C)C(=Nc1ccc(F)c(C(F)(F)F)c1)OCc1ccc(F)c(Oc2ccc(F)cc2)c1 [Compound 277] | 4 µg | 0.0005% | 0.013% | 0.005% | 0.00001% | 0.0003% | > 0.01% | 0.065 µg |  |
| CC(C)C(=Nc1ccc(F)c(F)c1)OCc1ccc(F)c(Oc2ccccc2)c1 [Compound 336] | 3.6 µg | 0.0005% | 0.02% | 0.001% | 0.00017% |  | 0.0091% | > 2.5 µg |  |
| CC(C)C(=Nc1ccc(F)c(Cl)c1)OCc1ccc(F)c(Oc2ccc(Cl)cc2)c1 [Compound 267] | 8.4 µg | 0.0003% | 0.015% | 0.0012% | 0.00008% | 0.002% | 0.0027% | 0.11 µg |  |
| CC(C)C(=Nc1cc(F)cc(F)c1)OCc1cccc(Oc2ccccc2)c1 [Compound 55] | > 100 µg | 0.004% | 0.06% | 0.006% | 0.0017% | 0.0005% |  | > 2.5 µg |  |
| CC(C)C(=Nc1ccc(F)c(Cl)c1)OCc1ccc(F)c(Oc2ccc(F)cc2)c1 [Compound 216] | 2 µg | 0.00018% | 0.005% | 0.0007% | 0.000007% | 0.00025% | 0.0017% | 0.067 µg |  |
| CC(C)C(=Nc1ccc(C(F)(F)F)cc1)OCc1ccc(F)c(Oc2ccccc2)c1 [Compound 337] | 21 µg | 0.0005% | 0.008% | 0.0005% | 0.0007% |  | 0.0053% | 0.067 µg |  |
| C=CCOc1cccc(COC(=Nc2cccc(C(F)(F)F)c2)C(C)C)c1 [Compound 480] | > 100 µg |  | > 0.1% |  | 0.01% |  |  |  | > 0.05% |
| CC(C)C(=Nc1ccc(F)c(Br)c1)OCc1ccc(F)c(Oc2ccc(F)cc2)c1 [Compound 273] | 7 µg | 0.00025% | 0.015% | 0.0017% | 0.000018% | 0.0003% | 0.004% | > 2.5 µg |  |
| CC(C)C(=Nc1ccc(F)c(Cl)c1)OCc1cccc(Oc2ccc(Cl)cc2)c1 [Compound 239] | 14 µg | 0.0005% | 0.025% | 0.005% | 0.00015% | 0.002% | 0.006% | > 2.5 µg |  |
| CC(C)C(=Nc1ccc2c(c1)OCO2)OCc1ccc(F)c(Oc2ccccc2)c1 [Compound 181] | 25 µg | 0.001% | 0.01% | 0.001% | 0.0005% |  | 0.005% | > 2.5 µg |  |
| CC(C)C(=Nc1ccc(F)c(Cl)c1F)OCc1cccc(Oc2ccc(F)cc2)c1 [Compound 352] | 4.6 µg | 0.0004% | > 0.1% | > 0.1% | 0.000065% | 0.0004% | 0.0075% | > 2.5 µg |  |
| CC(C)C(=Nc1ccc(F)c(Cl)c1)OCc1cccc(Oc2ccc(F)cc2)c1 [Compound 89] | 5 µg | 0.0005% | 0.04% | 0.009% | 0.00003% | 0.001% | 0.005% | > 2.5 µg |  |
| CC(C)C(=Nc1ccc(F)c(Cl)c1)OCc1cccc(Oc2ccccc2)c1 [Compound 81] | 4 µg | 0.0009% | 0.007% | 0.003% | 0.0006% | 0.0003% | 0.005% | > 0.5 µg |  |
| CC(C)C(=Nc1ccc(OC(F)(F)F)cc1)OCc1ccc(F)c(Oc2ccc(F)cc2)c1 [Compound 286] | 34 µg | 0.00017% | 0.005% | 0.0004% | 0.000024% | 0.0006% | 0.0039% | 0.09 µg |  |
| CC(C)C(=Nc1ccc2c(c1)OC(F)(F)O2)OCc1cccc(Oc2ccc(F)cc2)c1 [Compound 244] | 14 µg | 0.00025% | > 0.1% | 0.002% | 0.00004% |  | 0.0025% | 0.09 µg |  |
| CC(C)C(=Nc1ccc(OC(F)(F)F)cc1)OCc1ccc(F)c(Oc2ccc(Cl)cc2)c1 [Compound 323] | > 100 µg | 0.00065% | 0.045% | 0.0025% | 0.0006% | 0.05% | 0.0075% | 0.16 µg |  |
